Results from PubChem BioAssay (NCI).
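Each compound was tested at five concentrations against cells in 96-well plates for 48 hours. At the GI50, growth is halved. TGI denotes the concentration required for complete inhibition of growth.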

Experiments:
Assay in all cases: NCI tumour cell line growth inhibition, 48 h
SW-620 colon = test system: SW-620 colon
MALME-3M melanoma = test system: MALME-3M melanoma
LOX IMVI melanoma = test system: LOX IMVI melanoma
OVCAR-3 ovarian = test system: OVCAR-3 ovarian
HCT-15 colon = test system: HCT-15 colon
786-0 renal = test system: 786-0 renal
OVCAR-4 ovarian = test system: OVCAR-4 ovarian
MDA-MB-231 breast = test system: MDA-MB-231 breast
A498 renal = test system: A498 renal
CCRF-CEM leukemia = test system: CCRF-CEM leukemia
A549 NSCLC = test system: A549 NSCLC
SF-295 CNS = test system: SF-295 CNS
NCI-H460 lung = test system: NCI-H460 lung
HCT-116 colon = test system: HCT-116 colon
TK-10 renal = test system: TK-10 renal
IGROV1 ovarian = test system: IGROV1 ovarian
SK-MEL-28 melanoma = test system: SK-MEL-28 melanoma
T-47D breast = test system: T-47D breast
SNB-75 CNS = test system: SNB-75 CNS
UO-31 renal = test system: UO-31 renal
MCF7 breast = test system: MCF7 breast
HOP-92 NSCLC = test system: HOP-92 NSCLC
RXF 393 renal = test system: RXF 393 renal
NCI/ADR-RES ovarian = test system: NCI/ADR-RES ovarian
HT29 colon = test system: HT29 colon
KM12 colon = test system: KM12 colon
SNB-19 CNS = test system: SNB-19 CNS
HOP-62 NSCLC = test system: HOP-62 NSCLC
RPMI-8226 leukemia = test system: RPMI-8226 leukemia
SF-539 CNS = test system: SF-539 CNS
EKVX NSCLC = test system: EKVX NSCLC
HCC-2998 colon = test system: HCC-2998 colon
SN12C renal = test system: SN12C renal
UACC-257 melanoma = test system: UACC-257 melanoma
OVCAR-8 ovarian = test system: OVCAR-8 ovarian
NCI-H23 lung = test system: NCI-H23 lung
K-562 leukemia = test system: K-562 leukemia
HL-60(TB) leukemia = test system: HL-60(TB) leukemia
SF-268 CNS = test system: SF-268 CNS
SK-OV-3 ovarian = test system: SK-OV-3 ovarian
U251 CNS = test system: U251 CNS
MOLT-4 leukemia = test system: MOLT-4 leukemia
NCI-H226 lung = test system: NCI-H226 lung
SR leukemia = test system: SR leukemia
ACHN renal = test system: ACHN renal
COLO 205 colon = test system: COLO 205 colon
M14 melanoma = test system: M14 melanoma
SK-MEL-2 melanoma = test system: SK-MEL-2 melanoma
PC-3 prostate = test system: PC-3 prostate
UACC-62 melanoma = test system: UACC-62 melanoma
DU-145 prostate = test system: DU-145 prostate
CAKI-1 renal = test system: CAKI-1 renal
HS 578T breast = test system: HS 578T breast
OVCAR-5 ovarian = test system: OVCAR-5 ovarian
MDA-MB-435 = test system: MDA-MB-435
BT-549 breast = test system: BT-549 breast
NCI-H522 lung = test system: NCI-H522 lung
SK-MEL-5 melanoma = test system: SK-MEL-5 melanoma

COc1ccc(-c2cn[nH]c2-c2cc(OC)c(OC)c(OC)c2)cc1OCc1ccccc1
GI50 (SW-620 colon): 4.37 µM
TGI (SW-620 colon): 30.2 µM
GI50 (MALME-3M melanoma): 4.28 µM
TGI (MALME-3M melanoma): 26.2 µM
GI50 (LOX IMVI melanoma): 3.44 µM
TGI (LOX IMVI melanoma): 13.6 µM
GI50 (OVCAR-3 ovarian): 2.47 µM
TGI (OVCAR-3 ovarian): 5.44 µM
GI50 (HCT-15 colon): 3.07 µM
TGI (HCT-15 colon): 13.2 µM
GI50 (786-0 renal): 2.96 µM
TGI (786-0 renal): 16.2 µM
GI50 (OVCAR-4 ovarian): 4.97 µM
TGI (OVCAR-4 ovarian): 59.1 µM
GI50 (MDA-MB-231 breast): 3.25 µM
TGI (MDA-MB-231 breast): 16.5 µM
GI50 (A498 renal): 2.08 µM
TGI (A498 renal): 5.51 µM
GI50 (CCRF-CEM leukemia): 3.49 µM
TGI (CCRF-CEM leukemia): 26.5 µM
GI50 (A549 NSCLC): 3.56 µM
TGI (A549 NSCLC): 51.6 µM
GI50 (SF-295 CNS): 3.01 µM
TGI (SF-295 CNS): 9.02 µM
GI50 (NCI-H460 lung): 3.35 µM
TGI (NCI-H460 lung): 12.2 µM
GI50 (HCT-116 colon): 3.13 µM
TGI (HCT-116 colon): 11.2 µM
GI50 (TK-10 renal): 4.53 µM
TGI (TK-10 renal): 49 µM
GI50 (IGROV1 ovarian): 3.52 µM
TGI (IGROV1 ovarian): 18.7 µM
GI50 (SK-MEL-28 melanoma): 4.86 µM
TGI (SK-MEL-28 melanoma): 18.3 µM
GI50 (T-47D breast): 2.83 µM
TGI (T-47D breast): 19.1 µM
GI50 (SNB-75 CNS): 2.91 µM
TGI (SNB-75 CNS): 9.23 µM
GI50 (UO-31 renal): 3.21 µM
TGI (UO-31 renal): 15.2 µM
GI50 (MCF7 breast): 3.65 µM
TGI (MCF7 breast): 17.1 µM
GI50 (HOP-92 NSCLC): 2.01 µM
TGI (HOP-92 NSCLC): 15.3 µM
GI50 (RXF 393 renal): 1.95 µM
TGI (RXF 393 renal): 4.85 µM
GI50 (NCI/ADR-RES ovarian): 2.52 µM
TGI (NCI/ADR-RES ovarian): 7.43 µM
GI50 (HT29 colon): 3.61 µM
TGI (HT29 colon): 15.8 µM
GI50 (KM12 colon): 3.3 µM
TGI (KM12 colon): 12 µM
GI50 (SNB-19 CNS): 4.23 µM
TGI (SNB-19 CNS): 24.7 µM
GI50 (HOP-62 NSCLC): 3.13 µM
TGI (HOP-62 NSCLC): 14.1 µM
GI50 (RPMI-8226 leukemia): 2.22 µM
TGI (RPMI-8226 leukemia): 9.28 µM
GI50 (SF-539 CNS): 2.19 µM
TGI (SF-539 CNS): 5.23 µM
GI50 (EKVX NSCLC): 4.48 µM
TGI (EKVX NSCLC): 47.2 µM
GI50 (HCC-2998 colon): 3.45 µM
TGI (HCC-2998 colon): 12.1 µM
GI50 (SN12C renal): 4.41 µM
TGI (SN12C renal): 19.4 µM
GI50 (UACC-257 melanoma): 6.38 µM
TGI (UACC-257 melanoma): 24.3 µM
GI50 (OVCAR-8 ovarian): 3.72 µM
TGI (OVCAR-8 ovarian): 30.3 µM
GI50 (NCI-H23 lung): 4.21 µM
TGI (NCI-H23 lung): 31.7 µM
GI50 (K-562 leukemia): 3.18 µM
TGI (K-562 leukemia): > 100 µM
GI50 (HL-60(TB) leukemia): 2.36 µM
TGI (HL-60(TB) leukemia): 5.44 µM
GI50 (SF-268 CNS): 4.6 µM
TGI (SF-268 CNS): 27 µM
GI50 (SK-OV-3 ovarian): 3.74 µM
TGI (SK-OV-3 ovarian): 23.8 µM
GI50 (U251 CNS): 3.24 µM
TGI (U251 CNS): 11.8 µM
GI50 (MOLT-4 leukemia): 3.1 µM
TGI (MOLT-4 leukemia): 11 µM
GI50 (NCI-H226 lung): 3.57 µM
TGI (NCI-H226 lung): 20.5 µM
GI50 (SR leukemia): 2.85 µM
TGI (SR leukemia): 9.38 µM
GI50 (ACHN renal): 3.53 µM
TGI (ACHN renal): 35.2 µM
GI50 (COLO 205 colon): 4.58 µM
TGI (COLO 205 colon): 18.1 µM
GI50 (M14 melanoma): 2.63 µM
TGI (M14 melanoma): 8.77 µM
GI50 (SK-MEL-2 melanoma): 4.27 µM
TGI (SK-MEL-2 melanoma): 16.7 µM
GI50 (PC-3 prostate): 3.24 µM
TGI (PC-3 prostate): 19.1 µM
GI50 (UACC-62 melanoma): 3.02 µM
TGI (UACC-62 melanoma): 13.3 µM
GI50 (DU-145 prostate): 3.94 µM
TGI (DU-145 prostate): 21.6 µM
GI50 (CAKI-1 renal): 3.58 µM
TGI (CAKI-1 renal): 47.1 µM
GI50 (HS 578T breast): 2.23 µM
TGI (HS 578T breast): 8.86 µM
GI50 (OVCAR-5 ovarian): 3.76 µM
TGI (OVCAR-5 ovarian): 28 µM
GI50 (MDA-MB-435): 1.95 µM
TGI (MDA-MB-435): 3.91 µM
GI50 (BT-549 breast): 5.33 µM
TGI (BT-549 breast): 25.8 µM
GI50 (NCI-H522 lung): 2 µM
TGI (NCI-H522 lung): 9.31 µM
GI50 (SK-MEL-5 melanoma): 2.29 µM
TGI (SK-MEL-5 melanoma): 5.89 µM
